# Measured values from publication PMC9820070, “Synthesis, Photochemistry, Computational Study and Potential Application of New Styryl-Thiophene and Naphtho-Thiophene Benzylamines” (International Journal of Molecular Sciences, 2022).
# Columns and labels:
# [1] = system: TNFα production in human PBMCs; assay: TNFα production in LPS stimulated PBMCs; type: cell-based; details: compound treatment and LPS stimulation
# [2] = target: acetylcholinesterase from electric eel (Electrophorus electricus, UniProt O42275); assay: biochemical
# Chain of acetylcholinesterase from electric eel (O42275 24-633): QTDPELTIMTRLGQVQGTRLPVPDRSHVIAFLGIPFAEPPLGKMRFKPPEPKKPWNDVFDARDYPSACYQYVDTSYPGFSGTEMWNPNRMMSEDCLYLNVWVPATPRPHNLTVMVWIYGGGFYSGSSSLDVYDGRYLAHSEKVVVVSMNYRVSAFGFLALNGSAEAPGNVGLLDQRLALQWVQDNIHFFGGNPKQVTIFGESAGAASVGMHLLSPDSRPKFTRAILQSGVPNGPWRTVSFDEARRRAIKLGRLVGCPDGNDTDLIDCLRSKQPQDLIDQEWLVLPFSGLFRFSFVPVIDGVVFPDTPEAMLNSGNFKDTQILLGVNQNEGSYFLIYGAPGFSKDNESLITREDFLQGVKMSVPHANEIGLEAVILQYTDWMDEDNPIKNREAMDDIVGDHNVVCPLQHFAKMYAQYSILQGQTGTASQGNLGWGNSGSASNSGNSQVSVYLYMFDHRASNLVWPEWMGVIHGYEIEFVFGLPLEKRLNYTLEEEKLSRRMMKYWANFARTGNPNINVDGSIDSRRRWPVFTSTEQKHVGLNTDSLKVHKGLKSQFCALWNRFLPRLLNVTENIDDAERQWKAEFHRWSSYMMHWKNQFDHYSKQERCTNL
# [3] = target: T1, butyrylcholinesterase from equine serum (Equus caballus, UniProt P81908); assay: biochemical
# T1 sequence (P81908 whole entry): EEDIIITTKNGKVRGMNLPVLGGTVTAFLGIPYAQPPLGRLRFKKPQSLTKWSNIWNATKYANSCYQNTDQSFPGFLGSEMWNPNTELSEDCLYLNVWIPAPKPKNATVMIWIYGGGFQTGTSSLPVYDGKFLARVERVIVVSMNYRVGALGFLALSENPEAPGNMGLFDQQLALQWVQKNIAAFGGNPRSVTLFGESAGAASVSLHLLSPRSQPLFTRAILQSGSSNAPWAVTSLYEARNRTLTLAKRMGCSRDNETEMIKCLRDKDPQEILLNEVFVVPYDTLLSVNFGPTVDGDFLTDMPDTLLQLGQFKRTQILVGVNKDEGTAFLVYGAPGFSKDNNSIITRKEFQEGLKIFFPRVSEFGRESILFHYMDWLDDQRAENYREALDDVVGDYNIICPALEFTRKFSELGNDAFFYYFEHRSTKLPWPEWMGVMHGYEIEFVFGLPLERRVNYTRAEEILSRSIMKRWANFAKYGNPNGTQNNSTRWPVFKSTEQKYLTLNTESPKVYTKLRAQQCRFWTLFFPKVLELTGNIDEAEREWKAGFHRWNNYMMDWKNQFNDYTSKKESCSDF
# [4] = Acid resistance: pH change of UV spectra and NMR control at pH 1; type: physicochemical; details: 1H NMR spectrum recorded at pH 1
# THP-1 cell line = assay: THP-1 cell viability assay (CellTiter Glo); type: cell-based; details: THP-1, 72 h incubation
# [5] = system: TNFα production in human PBMCs; parameters: method as in PMID 35228009; details: earlier work; cited from earlier work
# [6] = target: T1, butyrylcholinesterase from equine serum; details: earlier work; cited from earlier work
compound,measurement,setting,value
"Fc1ccc(CNc2ccc(/C=C/c3cccs3)cc2)cc1 [trans-2, (E)-N-(4-fluorobenzyl)-4-(2-(thiophen-2-yl)vinyl)aniline]",effect on TNFα production,[1],did not have any effect
"C(=C\c1cccs1)/c1ccc(NCc2cccs2)cc1 [trans-8, (E)-4-(2-(thiophen-2-yl)vinyl)-N-(thiophen-2-ylmethyl)aniline]","inhibition values, AChE",[2],smaller than 50%
same,"inhibition values, BChE",[3]; tested at final concentrations 20–250 μM,smaller than 50%
"C(=C/c1cccs1)/c1ccc(NCc2cccs2)cc1 [cis-8, (Z)-4-(2-(thiophen-2-yl)vinyl)-N-(thiophen-2-ylmethyl)aniline]",IC50,"[2]; electric eel AChE, Ellman's method",133 µM
same,"acid resistance (1H NMR, cis configuration retained)",[4],strong acid resistance
"Fc1ccc(CNc2ccc3ccc4sccc4c3c2)cc1 [Compound 9, N-(4-fluorobenzyl)naphtho [2,1-b]thiophen-8-amine]",effect on TNFα production,[1],did not have any effect
same,effect on cell viability (antiproliferative activity),THP-1 cell line,most potent
"c1csc(CNc2ccc3ccc4sccc4c3c2)c1 [Compound 15, N-(thiophen-2-ylmethyl)naphtho [2,1-b]thiophen-8-amine]",IC50,"[3]; equine serum BChE, Ellman's method",~32.3 µM
"COc1ccc(CNc2ccc3ccc4sccc4c3c2)cc1 [Compound 13, N-(4-methoxybenzyl)naphtho [2,1-b]thiophen-8-amine]",effect on TNFα production,[1],did not have any effect
same,effect on cell viability (antiproliferative activity),THP-1 cell line,most potent
C=CCn1nnc2ccc3sccc3c21 [allyl-thienobenzotriazole IV],TNFα production in PBMCs in response to the LPS stimulus,[5],strongly inhibited
same,potency as inhibitor of eqBChE compared to the standard galantamine,[6],twice as potent
